From article PMC9066070, “RGI‐GOLVEN signaling promotes cell surface immune receptor abundance to regulate plant immunity” (EMBO Reports, 2022)
Entries after “also recorded” stand apart in the source; their conditions may differ. Non-standard residues stand in square brackets, D forms with d. Residues, ends and D or L forms follow the SMILES beside them. No end group written: not given here. *: point of attachment. SO3H = sulfated tyrosine (TyrSO3H2), O=S(=O)(O)*; Hyp = O=C(O)[C@@H]1C[C@@H](O)CN1; Cbz = O=C(OCc1ccccc1)*

Assays:
[1] = system: 26S proteasome; experiment: FLS2 accumulation in rgi5x after MG132 treatment, western blot; format: in vivo, Arabidopsis thaliana; conditions: rgi5x seedlings, 50 μM MG132, 1 h
Description: Figure 6 GLV2 perception by RGIs promotes maximal FLS2 abundance independent of transcription • Twelve‐day‐old WT or 35S::GLV2 8‐5 seedlings were treated with mock or 1 μM GLV2 for 24 h before protein extraction. Western blots were probed with α‐FLS2 or α‐BAK1 antibodies. CBB: Coomassie brilliant blue. • Quantitative real‐time PCR of FLS2 transcripts from 12‐day‐old seedlings treated with mock or 1 μM GLV2 for the indicated time, n = 3 biological replicates. UBQ was used as a house keeping gene. […] Western blot was probed with α‐FLS2 antibodies. • Protein extraction was performed from 12‐day‐old seedlings after 1 h treatment with mock or 50 μM MG132. Western blots were probed with α‐FLS2 antibodies. Data information: Similar results were obtained in three independent experiments. Source data are available online for this figure.

[2] = system: FLS2 transcription; design: method as in Flury et al, 2013; Tintor et al, 2013; Hou et al, 2014; conditions: ref Flury et al, 2013, Tintor et al, Hou et al, 2014; cited from earlier work
[3] = system: PRR-BAK1 complex; conditions: ref Stegmann et al, 2017; cited from earlier work
Excerpt: FER controls FLS2-BAK1 and EFR-BAK1 complex formation independent of protein accumulation ([…] et al, [2017]). In contrast to GLV2 treatment, the FER ligand RALF23 inhibits PRR-BAK1 complex formation. […] Whether GLV2's promotion of PRR complex formation and the regulation of PRR ...

[4] = biological target: T1, ectodomain of RGI3 with C-terminal Strep II-9x His tag (RGI3^ECD-Strep II-9x His) (Arabidopsis thaliana, UniProt C0LGR3 25-703, fluorescent dye by Monolith Protein Labeling Kit RED-tris-NTA Second Generation (His-tag reactive)); conditions: both partners purified
T1 construct: It was cloned into the baculovirus transfer vector pMeIBac B1 for secreted expression; not shown: Strep II-9x His, C-terminal, kept
T1 sequence (looked up): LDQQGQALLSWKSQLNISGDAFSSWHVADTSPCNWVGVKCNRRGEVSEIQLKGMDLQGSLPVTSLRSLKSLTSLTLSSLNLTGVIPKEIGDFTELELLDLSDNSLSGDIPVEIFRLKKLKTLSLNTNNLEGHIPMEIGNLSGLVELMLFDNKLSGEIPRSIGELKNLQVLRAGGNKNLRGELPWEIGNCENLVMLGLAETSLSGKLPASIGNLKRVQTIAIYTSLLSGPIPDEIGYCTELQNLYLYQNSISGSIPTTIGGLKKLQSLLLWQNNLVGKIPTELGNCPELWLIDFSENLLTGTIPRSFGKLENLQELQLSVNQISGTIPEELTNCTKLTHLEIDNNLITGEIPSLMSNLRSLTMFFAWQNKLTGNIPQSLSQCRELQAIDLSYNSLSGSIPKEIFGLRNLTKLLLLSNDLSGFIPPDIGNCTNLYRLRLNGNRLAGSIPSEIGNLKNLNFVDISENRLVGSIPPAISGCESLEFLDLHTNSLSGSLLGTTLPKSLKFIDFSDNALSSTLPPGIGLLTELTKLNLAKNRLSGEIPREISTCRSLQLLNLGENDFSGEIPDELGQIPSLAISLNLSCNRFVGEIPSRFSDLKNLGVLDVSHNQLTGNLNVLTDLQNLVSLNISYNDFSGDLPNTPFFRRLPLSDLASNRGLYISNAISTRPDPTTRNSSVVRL

CC(C)C[C@@H](C=O)NC(=O)[C@H](CC(C)C)NC(=O)[C@H](CC(C)C)NC(=O)OCc1ccccc1 [MG132] (Cbz-Leu-Leu-Leu-aldehyde)
FLS2 accumulation defect of rgi5x [1]: partial restoration; also recorded: partially rescued

PIP1: PATHOGEN-ASSOCIATED MOLECULAR PATTERN (PAMP)-INDUCED PEPTIDE perceived by RLK7 (GRVLTEKSGDGSATMTVEKMKSTVDSWFQRLASGPSPRGRGH; PAMP-induced secreted peptide 1; UniProt Q1PE40 31-72, looked up)
FLS2 transcription [2]: upregulation of FLS2 transcription

RALF23: FER ligand; RAPID ALKALINIZATION FACTOR peptide (ATRRYISYGALRRNTIPCSRRGASYYNCRRGAQANPYSRGCSAITRCRRS; Protein RALF-like 23; UniProt Q9LUS7 89-138, looked up)
PRR-BAK1 complex formation [3]: inhibits PRR‐BAK1 complex formation

B1: GOLVEN2 (GLV2) peptide, tyrosine-sulfated (peptide)
peptide: DMDY(SO3H)NSANKKR[Hyp]IHN
notes: mature GLV2 peptide cut from the GLV2 precursor, Arabidopsis thaliana; also called synthetic GLV2; source: synthetic peptide (Pepmic, Suzhou, China; purity minimum 90%)
Kd [4]: 11.8 nM

B2: GLV2 peptide without sulfated tyrosine (GLV2^-S) (peptide)
peptide: DMDYNSANKKRPIHN
modifications: without sulfated tyrosine
notes: mature GLV2 peptide cut from the GLV2 precursor, Arabidopsis thaliana, tyrosine not sulfated; also called GLV^-S; source: synthetic peptide (Pepmic, Suzhou, China; purity minimum 90%)
Kd [4]: 129 nM
